# Laboratory results reported in ChEMBL document CHEMBL1149696, “Synthesis and antibacterial activity of C11, C12-cyclic urea analogues of ketolides” (2007).
# Tests used:
# Assay type in all cases: functional
# Streptococcus pyogenes [1] = test: Antibacterial activity against erm containing Streptococcus pyogenes 1079
# Streptococcus pneumoniae [2] = test: Antibacterial activity against erythromycin susceptible Streptococcus pneumoniae 1016
# Streptococcus pyogenes [3] = test: Antibacterial activity against erythromycin susceptible Streptococcus pyogenes 203
# Staphylococcus aureus [4] = test: Antibacterial activity against erm containing Staphylococcus aureus 1095
# Streptococcus pneumoniae [5] = test: Antibacterial activity against mef containing Streptococcus pneumoniae 1175
# Haemophilus influenzae [6] = test: Antibacterial activity against Haemophilus influenzae 1218
# Streptococcus pneumoniae [7] = test: Antibacterial activity against erm containing Streptococcus pneumoniae 1095
# Staphylococcus aureus [8] = test: Antibacterial activity against erythromycin susceptible Staphylococcus aureus 1146
# Staphylococcus aureus [9] = test: Antibacterial activity against erm containing Staphylococcus aureus 1117
# Staphylococcus aureus [10] = test: Antibacterial activity against erythromycin susceptible Staphylococcus aureus 0052
# Haemophilus influenzae [11] = test: Antibacterial activity against Haemophilus influenzae 1100
Compound,MIC (Streptococcus pyogenes [1]),MIC (Streptococcus pneumoniae [2]),MIC (Streptococcus pyogenes [3]),MIC (Staphylococcus aureus [4]),MIC (Streptococcus pneumoniae [5]),MIC (Haemophilus influenzae [6]),MIC (Streptococcus pneumoniae [7]),MIC (Staphylococcus aureus [8]),MIC (Staphylococcus aureus [9]),MIC (Staphylococcus aureus [10]),MIC (Haemophilus influenzae [11])
CC[C@H]1OC(=O)[C@H](C)C(=O)[C@H](C)[C@@H](O[C@@H]2O[C@H](C)C[C@H](N(C)C)[C@H]2O)[C@@](C)(OC)C[C@@H](C)C(=O)[C@H](C)[C@H]2N(C/C=C/Cn3cnc4cccnc43)C(=O)N[C@]12C,16 µg/mL,0.063 µg/mL,0.063 µg/mL,64 µg/mL,1 µg/mL,1 µg/mL,0.063 µg/mL,0.13 µg/mL,–,–,–
CC[C@H]1OC(=O)[C@@](C)(F)C(=O)[C@H](C)[C@@H](O[C@@H]2O[C@H](C)C[C@H](N(C)C)[C@H]2O)[C@@](C)(OC)C[C@@H](C)C(=O)[C@H](C)[C@H]2N(C/C=C/Cn3cnc(-c4cccnc4)c3)C(=O)N(C)[C@]12C,4 µg/mL,0.063 µg/mL,0.063 µg/mL,64 µg/mL,0.063 µg/mL,1 µg/mL,0.063 µg/mL,0.063 µg/mL,–,–,–
CC[C@H]1OC(=O)[C@@](C)(F)C(=O)[C@H](C)[C@@H](O[C@@H]2O[C@H](C)C[C@H](N(C)C)[C@H]2O)[C@@](C)(OC)C[C@@H](C)C(=O)[C@H](C)[C@H]2N(CCCCn3cnc(-c4cccnc4)c3)C(=O)N(CC)[C@]12C,32 µg/mL,0.013 µg/mL,0.024 µg/mL,–,0.39 µg/mL,–,0.025 µg/mL,–,100 µg/mL,0.049 µg/mL,0.25 µg/mL
CC/C=C/CN1C(=O)N(CCCCn2cnc(-c3cccnc3)c2)[C@@H]2[C@@H](C)C(=O)[C@H](C)C[C@](C)(OC)[C@H](O[C@@H]3O[C@H](C)C[C@H](N(C)C)[C@H]3O)[C@@H](C)C(=O)[C@](C)(F)C(=O)O[C@H](CC)[C@]21C,64 µg/mL,0.05 µg/mL,0.098 µg/mL,–,0.78 µg/mL,–,0.1 µg/mL,–,100 µg/mL,0.098 µg/mL,0.5 µg/mL
CC[C@H]1OC(=O)[C@@](C)(F)C(=O)[C@H](C)[C@@H](O[C@@H]2O[C@H](C)C[C@H](N(C)C)[C@H]2O)[C@@](C)(OC)C[C@@H](C)C(=O)[C@H](C)[C@H]2N(CCCCn3cnc(-c4cccnc4)c3)C(=O)N[C@]12C,4 µg/mL,0.006 µg/mL,0.006 µg/mL,–,0.78 µg/mL,–,0.012 µg/mL,–,100 µg/mL,0.049 µg/mL,2 µg/mL
C/C=C/CN1C(=O)N(CCCCn2cnc(-c3cccnc3)c2)[C@@H]2[C@@H](C)C(=O)[C@H](C)C[C@](C)(OC)[C@H](O[C@@H]3O[C@H](C)C[C@H](N(C)C)[C@H]3O)[C@@H](C)C(=O)[C@](C)(F)C(=O)O[C@H](CC)[C@]21C,32 µg/mL,0.05 µg/mL,0.049 µg/mL,–,0.39 µg/mL,–,0.1 µg/mL,–,100 µg/mL,0.098 µg/mL,0.25 µg/mL
CC[C@H]1OC(=O)[C@@](C)(F)C(=O)[C@H](C)[C@@H](O[C@@H]2O[C@H](C)C[C@H](N(C)C)[C@H]2O)[C@@](C)(OC)C[C@@H](C)C(=O)[C@H](C)[C@H]2N(C/C=C/Cn3cnc4cccnc43)C(=O)N[C@]12C,2 µg/mL,0.063 µg/mL,0.063 µg/mL,64 µg/mL,0.25 µg/mL,0.5 µg/mL,0.063 µg/mL,0.063 µg/mL,–,–,–
